# Read-outs that look alike come from different tables or passages of the source.
# What was measured:
# [1] = test system: SARS‐CoV‐2; experiment: microbe, parasite or virus in culture; format: cell-based
# [2] = target: T1, SARS‐CoV PL^pro (Severe acute respiratory syndrome coronavirus, UniProt P0C6X7); experiment: biochemical; format: biochemical
# [3] = in vitro; details: African green monkey
# [4] = target: SARS‐CoV‐2 PL^pro (Severe acute respiratory syndrome coronavirus 2, UniProt P0DTD1); experiment: biochemical; format: biochemical
# [5] = target: T1, SARS‐CoV PL^pro; details: read-out: IC50 SARS‐CoV PL^pro; cited from earlier work
Compound,SI (selectivity index) [1],"EC50 ([1]; Severe acute respiratory syndrome coronavirus 2, Vero C1008, 24 h, read-out: EC50 inhibition of SARS‐CoV‐2 replication)",IC50 [2],CC50 [3],IC50 [4],melting point,IC50 [5]
"C[C@@H](NC(=O)c1ccccc1Cl)c1cccc2ccccc12 [Compound 2 i, 2‐Chloro‐N‐[(1R)‐1‐naphth‐1‐ylethyl]benzamide]",212,1.77 ± 1.6 µM,6.5 ± 0.8 µM,376 ± 1.36 µM,15 ± 2 µM,133 °C,
CCc1ccccc1C(=O)NC(C)c1ccc2ccccc2c1 (centres unmarked) [Compound 19],,,,,,,> 200 µM
C[C@H](c1cccc2ccccc12)N1CCC(C(=O)NCc2cccc(F)c2)CC1 [Compound 20],,,,,,,0.15 µM

# From PMC7894572 (Chemmedchem, 2020)
